From patent US11498899B2, “Nitrone herbicides” (FMC Corporation, priority 2016, dated 2022)

How the values were obtained:
[1] = tested on: barnyardgrass (Echinochloa crus-galli); experiment: Test B flooded paddy test, visual rating 0-100; conditions: Flood, 250 g ai/ha, applied to paddy water, rated after 13 to 15 days
[2] = tested on: foxtail, giant (giant foxtail, Setaria faberii); experiment: Test A preemergence, visual injury rating 0-100; type: in vivo; conditions: for Foxtail, Giant plant response rating: 125 g ai/ha, 0 to 100 scale (0 no effect, 100 complete control), approx. 10 days; for Foxtail, Giant plant response rating (0 to 100 scale): 500 g ai/ha
[3] = tested on: ragweed (common ragweed, Ambrosia elatior); experiment: Test A preemergence, visual injury rating 0-100; type: in vivo; conditions: for Ragweed plant response rating: 125 g ai/ha, 0 to 100 scale (0 no effect, 100 complete control), approx. 10 days; for Ragweed plant response rating (0 to 100 scale): 500 g ai/ha
[4] = tested on: ryegrass, Italian (Italian ryegrass, Lolium multiflorum); experiment: Test A preemergence, visual injury rating 0-100; type: in vivo; conditions: for Ryegrass, Italian plant response rating: 125 g ai/ha, 0 to 100 scale (0 no effect, 100 complete control), approx. 10 days; for Ryegrass, Italian plant response rating (0 to 100 scale): 500 g ai/ha
kochia (Kochia scoparia) [5] = experiment: Test A preemergence, visual injury rating 0-100; type: in vivo; conditions: for Kochia plant response rating: 125 g ai/ha, 0 to 100 scale (0 no effect, 100 complete control), approx. 10 days; for Kochia plant response rating (0 to 100 scale): 500 g ai/ha
[6] = tested on: pigweed (Amaranthus retroflexus); experiment: Test A preemergence, visual injury rating 0-100; type: in vivo; conditions: for Pigweed plant response rating: 125 g ai/ha, 0 to 100 scale (0 no effect, 100 complete control), approx. 10 days; for Pigweed plant response rating (0 to 100 scale): 500 g ai/ha
[7] = tested on: foxtail, giant (giant foxtail, Setaria faberii); experiment: Test A postemergence, visual injury rating 0-100; type: in vivo; conditions: 0 to 100 scale
[8] = tested on: galium (catchweed bedstraw, Galium aparine); experiment: Test A postemergence, visual injury rating 0-100; type: in vivo; conditions: 0 to 100 scale
[9] = tested on: blackgrass (Alopecurus myosuroides); experiment: Test A postemergence, visual injury rating 0-100; type: in vivo; conditions: 0 to 100 scale
[10] = tested on: barnyardgrass (Echinochloa crus-galli); experiment: Test A postemergence, visual injury rating 0-100; type: in vivo; conditions: 0 to 100 scale
[11] = tested on: ragweed (common ragweed, Ambrosia elatior); experiment: Test A postemergence, visual injury rating 0-100; type: in vivo; conditions: 0 to 100 scale
[12] = tested on: ryegrass, Italian (Italian ryegrass, Lolium multiflorum); experiment: Test A postemergence, visual injury rating 0-100; type: in vivo; conditions: 0 to 100 scale
kochia (Kochia scoparia) [13] = experiment: Test A postemergence, visual injury rating 0-100; type: in vivo; conditions: 0 to 100 scale
[14] = tested on: pigweed (Amaranthus retroflexus); experiment: Test A postemergence, visual injury rating 0-100; type: in vivo; conditions: 0 to 100 scale
corn (Zea mays) = experiment: Test A postemergence, visual injury rating 0-100; type: in vivo; conditions: 0 to 100 scale
[15] = tested on: wheat (Triticum aestivum); experiment: Test A postemergence, visual injury rating 0-100; type: in vivo; conditions: 0 to 100 scale
[16] = tested on: barnyardgrass (Echinochloa crus-galli); experiment: Test A preemergence, visual injury rating 0-100 (0 no effect, 100 complete control); type: in vivo; conditions: for Barnyardgrass plant response rating: 125 g ai/ha, 0 to 100 scale (0 no effect, 100 complete control), approx. 10 days; for Barnyardgrass plant response rating (0 to 100 scale): 500 g ai/ha
rice (Oryza sativa) = experiment: Test B flooded paddy test, visual rating 0-100 (0 no effect, 100 complete control); conditions: Flood, 250 g ai/ha, applied to paddy water, rated after 13 to 15 days
[17] = tested on: ducksalad (Heteranthera limosa); experiment: Test B flooded paddy test, visual rating 0-100; conditions: Flood, 250 g ai/ha, applied to paddy water, rated after 13 to 15 days

Structure (SMILES) | Barnyardgrass plant response rating (0 to 100 scale) [1] | Foxtail, Giant plant response rating [2] | Foxtail, Giant plant response rating (0 to 100 scale) [2] | Ryegrass, Italian plant response rating [4] | Ryegrass, Italian plant response rating (0 to 100 scale) [4] | Kochia plant response rating (kochia (Kochia scoparia) [5]) | Kochia plant response rating (0 to 100 scale) (kochia (Kochia scoparia) [5]) | Pigweed plant response rating [6] | Pigweed plant response rating (0 to 100 scale) [6] | Foxtail, Giant plant response rating ([7]; 125 g ai/ha) | Foxtail, Giant plant response rating ([7]; 500 g ai/ha) | Galium plant response rating ([8]; 125 g ai/ha) | Galium plant response rating ([8]; 500 g ai/ha) | Blackgrass plant response rating ([9]; 125 g ai/ha) | Blackgrass plant response rating ([9]; 500 g ai/ha) | Barnyardgrass plant response rating ([10]; 125 g ai/ha) | Barnyardgrass plant response rating ([10]; 500 g ai/ha) | Ragweed plant response rating ([11]; 125 g ai/ha) | Ragweed plant response rating ([11]; 500 g ai/ha) | Ryegrass, Italian plant response rating ([12]; 125 g ai/ha) | other results
CC1=[N+]([O-])C(C(=O)Nc2cccc(F)c2F)C(c2cccc3c2CCC3)C1 (racemic) [Compound 118] | 95 | 90 | 100 | 90 | 100 | 20 | 80 | 40 | 80 | 50 | 90 | 50 | 50 | 50 | 70 | 60 | 80 | 0 | 70 | 50 | Ragweed plant response rating [3]: 70; Ragweed plant response rating (0 to 100 scale) [3]: 90; Ryegrass, Italian plant response rating ([12]; 500 g ai/ha): 90; Kochia plant response rating (kochia (Kochia scoparia) [13]; 125 g ai/ha): 50; Kochia plant response rating (kochia (Kochia scoparia) [13]; 500 g ai/ha): 60; Pigweed plant response rating ([14]; 125 g ai/ha): 0; Pigweed plant response rating ([14]; 500 g ai/ha): 30; Corn plant response rating (corn (Zea mays); 125 g ai/ha): 70; Corn plant response rating (corn (Zea mays); 500 g ai/ha): 80; Wheat plant response rating ([15]; 125 g ai/ha): 40; Wheat plant response rating ([15]; 500 g ai/ha): 80; Barnyardgrass plant response rating [16]: 90; Barnyardgrass plant response rating (0 to 100 scale) [16]: 100; Rice plant response rating (0 to 100 scale) (rice (Oryza sativa)): 15; Ducksalad plant response rating (0 to 100 scale) [17]: 90
CC1=[N+]([O-])C(C(=O)Nc2cccc(F)c2F)C(c2ccc(=O)n(Cc3ccc(Cl)cc3)c2)C1 (racemic) [Compound 119] | 0 | 0 | 0 | 0 | 0 | 0 | 0 | 0 | 0 | 0 | 0 | 0 | 0 | 0 | 0 | 0 | 0 | 0 | 0 | 10 | Ragweed plant response rating [3]: 0; Ryegrass, Italian plant response rating ([12]; 500 g ai/ha): 20; Kochia plant response rating (kochia (Kochia scoparia) [13]; 125 g ai/ha): 0; Kochia plant response rating (kochia (Kochia scoparia) [13]; 500 g ai/ha): 0; Pigweed plant response rating ([14]; 125 g ai/ha): 0; Pigweed plant response rating ([14]; 500 g ai/ha): 0; Corn plant response rating (corn (Zea mays); 125 g ai/ha): 0; Corn plant response rating (corn (Zea mays); 500 g ai/ha): 0; Wheat plant response rating ([15]; 125 g ai/ha): 0; Wheat plant response rating ([15]; 500 g ai/ha): 0; Barnyardgrass plant response rating [16]: 0; Barnyardgrass plant response rating (0 to 100 scale) [16]: 0; Rice plant response rating (0 to 100 scale) (rice (Oryza sativa)): 0; Ducksalad plant response rating (0 to 100 scale) [17]: 0
CCC1=[N+]([O-])C(C(=O)Nc2cccc(F)c2F)C(c2ccc(C(F)(F)F)cc2)C1 (racemic) [Compound 120] | 15 | 70 | 90 | 0 | 70 | 0 | 70 | 30 | 60 | 0 | 80 | 20 | 50 | 0 | 20 | 20 | 70 | 0 | 40 | 0 | Ragweed plant response rating (0 to 100 scale) [3]: 80; Ryegrass, Italian plant response rating ([12]; 500 g ai/ha): 0; Kochia plant response rating (kochia (Kochia scoparia) [13]; 125 g ai/ha): 0; Kochia plant response rating (kochia (Kochia scoparia) [13]; 500 g ai/ha): 30; Pigweed plant response rating ([14]; 125 g ai/ha): 10; Pigweed plant response rating ([14]; 500 g ai/ha): 20; Corn plant response rating (corn (Zea mays); 125 g ai/ha): 0; Corn plant response rating (corn (Zea mays); 500 g ai/ha): 0; Wheat plant response rating ([15]; 125 g ai/ha): 0; Wheat plant response rating ([15]; 500 g ai/ha): 0; Barnyardgrass plant response rating [16]: 80; Barnyardgrass plant response rating (0 to 100 scale) [16]: 90; Rice plant response rating (0 to 100 scale) (rice (Oryza sativa)): 0; Ducksalad plant response rating (0 to 100 scale) [17]: 70
CC(C)C1=[N+]([O-])C(C(=O)Nc2cccc(F)c2F)C(c2ccc(C(F)(F)F)cc2)C1 (racemic) [Compound 122] | 0 | 0 | 0 | 0 | 0 | 0 | 0 | 0 | 0 | 0 | 0 | 0 | 0 | 0 | 0 | 0 | 0 | 0 | 0 | 0 | Ragweed plant response rating [3]: 0; Ragweed plant response rating (0 to 100 scale) [3]: 0; Ryegrass, Italian plant response rating ([12]; 500 g ai/ha): 0; Kochia plant response rating (kochia (Kochia scoparia) [13]; 125 g ai/ha): 0; Kochia plant response rating (kochia (Kochia scoparia) [13]; 500 g ai/ha): 0; Pigweed plant response rating ([14]; 125 g ai/ha): 0; Pigweed plant response rating ([14]; 500 g ai/ha): 0; Corn plant response rating (corn (Zea mays); 125 g ai/ha): 0; Corn plant response rating (corn (Zea mays); 500 g ai/ha): 0; Wheat plant response rating ([15]; 125 g ai/ha): 0; Wheat plant response rating ([15]; 500 g ai/ha): 0; Barnyardgrass plant response rating [16]: 0; Barnyardgrass plant response rating (0 to 100 scale) [16]: 0; Rice plant response rating (0 to 100 scale) (rice (Oryza sativa)): 0; Ducksalad plant response rating (0 to 100 scale) [17]: 0
